According to patent US12162935B2, “Regimens, compositions and methods with capsaicin and TNF-alpha inhibitor” (priority 2018, dated 2024):

Legend:
TRPV1 = TRPV1 (Homo sapiens, UniProt Q8NER1); assay: Ca2+ imaging (Fluo-4AM) in HEKVR1 cells; type: cell-based
Text: (§1) NE has been linked to immediate increase in ROS generation and persistent oxidative stress in the cochlea2, leading to generation of reactive oxygen species such as: hydroxyl […] (OH^−), superoxide anion (O^2—) and hydrogen peroxide (H2O2).

UB/OC1 cells = assay: Cell death by TUNEL
Experimental: UB/OC1 cells were treated with either scrambled siRNA or TRPV1 siRNA for 24 h.

UB/OC-1 cells [1] = assay: Ca2+ imaging (Fluo-4AM) in UB/OC-1 cells; type: cell-based, mouse
Text: as §1

ERK1/2 = ERK1/2 activation by western blotting; type: cell-based, mouse; settings: 100 μM H2O2 or TNF-α 0.1 μg/ml
UB/OC-1 cells [2] = assay: Cell viability assay (MTS assay); type: cell-based
Experimental: The in vitro UB/OC1 cell proliferation was performed by using the CellTiter 96® AQueous One Solution Cell Proliferation Assay Kit (Promega, Madison, WI), according to the manufacturer's instructions. 3,500 cells were seeded per well into a 96-well plate. […] After 48 h, 20 μl of CellTiter 96 AQueous One Solution reagent was added to each well in 100 μl of total volume of media. Cells were incubated for 1 h, and recorded absorbance at 490 nm using an ELISA plate reader. The absorbance is directly proportional to the number of living cells and is expressed as a percent relative to vehicle-treated cells.

UB/OC-1 cells [3] = assay: Western blot of STAT1, STAT3 and JAK2 phosphorylation; type: cell-based, mouse
rat cochlea [4] = assay: Cochlear gene expression by q-PCR (cisplatin study); type: in vivo; settings: 72 h following cisplatin
rat cochlea [5] = assay: Immunolabelling of mid-modiolar cochlear sections, fluorescent intensity analyses; type: in vivo
Experimental: Cochleae were perfused with a 4% paraformaldehyde solution, cochleae were decalcified for 7-10 days in 120 mM EDTA, embedded them in paraffin and then sectioned the specimens [Mukherjea et al., 2010]. Slides were deparaffined, rehydrated and then stained with primary and secondary antibodies. Glass coverslips were mounted on the specimens with ProLong Diamond mounting medium. Images were obtained using a Leica confocal microscope (Buffalo Grove, IL).
Image J software was used to analyze the mean gray area for the various images. These values were then used to quantify the increase or decrease in % fluorescence intensity of the various regions of the samples compared to control.

UMSCC-10b cells = assay: SCID mouse xenograft model; type: in vivo; settings: single agent: cisplatin 2 mg/kg ip or oral capsaicin 0.5 mg/kg
Experimental: SCID mice (from Envigo, 5-6 weeks of age) were injected subcutaneously with 1.5×10^6 mycoplasma-free UMSCC 10B cells in one flank. […] At the time of each treatment, tumor volumes were calculated based on the formula: volume=width2×(length/2) [Jajoo et al.]. Mice were killed 24 h after the eleventh treatment. All procedures were performed in accordance with relevant guidelines and regulations of SIU School of Medicine.

outer hair cells (OHCs) = assay: Outer hair cell damage by SEM and whole mount hair cell count; type: in vivo, rat; settings: basal turn, cisplatin
Text: Immediately after completion of post-treatment ABRs, rats were euthanized and their cochleae were harvested and the specimens processed as described previously by [Kamimura et al.]. Sputter-coated cochlea were viewed and photographed with a Hitachi S-500 scanning electron microscope (Hitachi Ltd.). The resulting scanning electron micrographs were examined to determine qualitative morphological characteristics in various regions including the basal, middle, and apical turns of the rat cochlea.
Two representative areas of the basal turn, middle turn, and apex and hook portion were photographed. In each area, outer hair cells (OHCs) were counted in an area that was 10 pillar cell heads in length. The results are presented as the percentage hair cell damage per cochlear turn. At least three cochleae from different animals per treatment group were used.
To study the organization of the outer hair cells and inner hair cells, the cochlear whole mount technique was used. The cochleae was fixed in fresh 4% paraformaldehyde overnight, and then decalcified in […] EDTA for 2 weeks, (pH 7.3) while stirring at room temperature for 2 weeks. After decalcification, the cochleae was microdissected into basal, middle, and apical turns for whole-mount preparation.
For further processing, segments were washed with 1×PBS twice for 5 mins. For blocking, the segments were incubated in 10% blocking serum (horse serum) for 3 hrs at room temperature. The segments were incubated with primary antibody in 0.2% Triton prepared in PBS and refrigerated overnight. The following day, the segments were washed in PBS (three washes) for 5 mins each wash. The segments were washed in secondary antibody for 2 hrs at room temperature in the dark. The antibodies were then washed with PBS (three washes). Glass coverslips were then mounted on the segments with ProLong Diamond Antifade Mountant (Thermo Fisher Scientific) and incubated them at room temperature overnight and then stored them in 4 degrees. Images were procured using a Leica confocal microscope (Buffalo Grove, IL).
For hair cell count in whole mount preparations, two to three random areas from the basal turn from each treatment group separately were selected. Hair cells were counted in […] segments of the cochlea respectively. Counts were averaged across treatment group. This was further normalized as % of PBS (control) by taking the values of control as 100%.

Wistar rats = assay: ABR threshold shifts, cisplatin-induced hearing loss; type: in vivo, rat
Experimental: Adult male Wistar rats (200-350 g) (from Envigo) were used for this study. Rats were housed in a temperature controlled room with a twelve hour light/dark cycle. They had free access to commercial food and water provided by the SIU Laboratory Animal Care facility.
Prior to experiments, rats were anesthetized with ketamine HCl/xylazine mixture (24.6/3 mg/kg) and then placed in a sound-attenuation chamber (Industrial Acoustic Company, Inc.). Body temperature of the rats was maintained at 37° C. with an animal blanket system. Pretreatment auditory brainstem responses (ABRs) was performed using an IHS-High-frequency System (Intelligent Hearing Systems, Miami, FL). The rats were exposed to acoustic stimuli via HIS transducers that were directly placed at the entrance of the ear canal. ABR thresholds were obtained for 5 ms duration tone bursts at 8, 16 and 32 kHz at a rate of 50/s. Thresholds were determined by visually produced lowest intensity evoked potentials (EP) that progressed in 10 dB steps. Evoked potentials (Eps) were amplified to 200,000×, and were band pass filtered (100-3000 Hz) and averaged over 1024 sweeps [Mukherjea et al., 2010].
At the end of auditory testing, the anesthetized animals were decapitated and the cochlea harvested. The SIU Laboratory Animal Care and Use Committee approved all animal procedures.
Male Wistar rats were anesthetized using ketamine/xylazine cocktail. The tympanic membrane was punctured as described in [Mukherjea et al., 2010].

[6] = TNF-α 0.1 μg/ml 60 seconds prior to 100 μM H2O2, till 5 minutes
[7] = BCTC 100 nM 45 min then capsaicin 2.5 μM
[8] = capsaicin 2.5 μM 30 min and/or cisplatin 2.5 μM 45 min (FIG. 5.E)

Chain of TRPV1 (Q8NER1 whole entry, species assumed): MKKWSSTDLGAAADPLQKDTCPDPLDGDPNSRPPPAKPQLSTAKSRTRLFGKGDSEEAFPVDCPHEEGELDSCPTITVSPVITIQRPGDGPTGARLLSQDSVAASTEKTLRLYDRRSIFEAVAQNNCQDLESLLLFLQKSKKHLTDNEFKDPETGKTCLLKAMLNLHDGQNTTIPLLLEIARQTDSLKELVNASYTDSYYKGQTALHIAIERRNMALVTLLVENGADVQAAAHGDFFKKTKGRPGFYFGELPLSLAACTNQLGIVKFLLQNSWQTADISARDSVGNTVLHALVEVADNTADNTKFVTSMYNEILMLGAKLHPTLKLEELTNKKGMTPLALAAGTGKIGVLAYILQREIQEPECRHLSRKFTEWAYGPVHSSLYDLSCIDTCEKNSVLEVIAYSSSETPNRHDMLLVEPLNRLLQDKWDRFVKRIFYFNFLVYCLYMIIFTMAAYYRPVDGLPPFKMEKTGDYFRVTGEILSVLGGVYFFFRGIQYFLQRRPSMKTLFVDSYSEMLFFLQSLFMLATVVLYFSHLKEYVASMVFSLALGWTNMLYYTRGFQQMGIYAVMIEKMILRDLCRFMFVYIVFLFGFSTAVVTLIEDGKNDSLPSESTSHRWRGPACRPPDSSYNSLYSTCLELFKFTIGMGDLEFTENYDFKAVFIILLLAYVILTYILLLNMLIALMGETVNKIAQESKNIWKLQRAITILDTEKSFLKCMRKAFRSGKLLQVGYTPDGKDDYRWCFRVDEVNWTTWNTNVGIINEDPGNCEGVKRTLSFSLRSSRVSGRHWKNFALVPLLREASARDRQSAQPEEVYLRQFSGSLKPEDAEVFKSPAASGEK

For `COc1cccc(-c2cc(=O)c3ccccc3o2)c1N` [PD98059], the H2O2-induced calcium release (TRPV1; 10 μM PD98059 pre-treatment) was “little or no calcium release”, the “cell death/apoptosis by 100 μM H2O2” value (UB/OC1 cells) was “significantly decreased cell death” and the H2O2-induced calcium release (UB/OC-1 cells [1]; 10 μM PD98059 pre-treatment) was “little or no calcium release”.
In the case of `OO` [H2O2, hydrogen peroxide], the “time of highest ERK activation post treatment” value (ERK1/2) was 60 min.
In the case of `O=[N+]([O-])c1ccc2c(c1)S(=O)(=O)C=C2` [STATTIC], the cell death (UB/OC-1 cells [2]; STATTIC 100 nM alone) was “did not induce cell death”, the “protective action of capsaicin against cisplatin-induced cell killing” value (UB/OC-1 cells [2]; STATTIC 100 nM pre-treatment) was “abrogated the protective action of capsaicin” and the “Tyr^705 p-STAT3 levels” value (UB/OC-1 cells [3]; STATTIC 100 nM) was “significantly reduced”.
For `CCCn1c(C)c(C(=O)c2cccc3ccccc23)c2ccccc21` [JWH015], the p-STAT3 (UB/OC-1 cells [3]; JWH015 10 μM 30 min) was “increased p-STAT3”.
In the case of `Cc1c(C(=O)NN2CCOCC2)nn(-c2ccc(Cl)cc2Cl)c1-c1ccc(I)cc1` [AM281], the “capsaicin-induced Ser^727 p-STAT1” value (UB/OC-1 cells [3]) was “had no effect” and the “capsaicin-induced Tyr p-STAT3” value (UB/OC-1 cells [3]) was “did not alter”.
TNF-α was tested, and the “time of highest ERK activation post treatment” value (ERK1/2) was 30 min, the H2O2-induced calcium release (TRPV1; [6]) was “prolonged sustained calcium release” and the H2O2-induced calcium release (UB/OC-1 cells [1]; [6]) was “prolonged sustained calcium release”.
In the case of `CC(C)(C)c1ccc(NC(=O)N2CCN(c3ncccc3Cl)CC2)cc1` [BCTC, N-(4-tertiarybutylphenyl)-4-(3-chloropyridin-2-yl) tetrahydropyrazine-1(2H)-carbox-amide], the “TRPV1 mediated STAT1-Ser^727 phosphorylation” value (UB/OC-1 cells [3]; [7]) was “decreases” and the “Tyr STAT3 phosphorylation” value (UB/OC-1 cells [3]; [7]) was “without significantly altering”.
With `N.N.[Cl][Pt][Cl]` [cisplatin] the “increases in TRPV1, NOX3 and INOS expression” value (rat cochlea [4]) was 2-3 fold, the “CB2 labelling in the OHCs, SGs and SVA” value (rat cochlea [5]; single agent) was “did not significantly change” and the “TRPV1, NOX3 and iNOS labelling in the OHCs, SG and SVA” value (rat cochlea [5]; single agent vs control) was “significantly increased”. The “tumor growth (volume, size, weight)” value (UMSCC-10b cells) was “significantly reduced”, the “Tyr p-STAT3” value (UB/OC-1 cells [3]; 2.5 μM, at 120 minutes) was “sustained inhibition” and the JAK2 phosphorylation (UB/OC-1 cells [3]; 2.5 μM, time course) was “persistent and significant reductions”. For the same molecule, the “Ser^727 p-STAT1” value (UB/OC-1 cells [3]; 2.5 μM, up to 120 min) was “persistent increase”, the p-STAT1 (UB/OC-1 cells [3]; [8]) was 120±2% and the p-STAT3 (UB/OC-1 cells [3]; [8]) was 106.5±2.5%. The “loss or damage of outer hair cells compared to vehicle controls” value (outer hair cells (OHCs); SEM) was “ten-fold” and the “outer hair cell death” value (outer hair cells (OHCs); whole mount, myosin VIIa) was 43±4%.
`COc1ccc(C(=O)c2c(C)n(CCN3CCOCC3)c3cc(I)ccc23)cc1` [AM630] was tested, and the ABR thresholds (Wistar rats; AM630 trans-tympanic alone or in combination with capsaicin) was “significant increases in ABR thresholds”, the “effect on capsaicin protection against cisplatin-induced hearing loss” value (Wistar rats; AM630 trans-tympanic before oral capsaicin 20 mg/kg and cisplatin) was “reversed the protective effect of oral capsaicin” and the “cell viability compared to capsaicin” value (UB/OC-1 cells [2]; AM630 30 minutes prior to capsaicin for 24 h) was “significantly decreased cell viability”. For the same molecule, the “capsaicin-induced Ser^727 p-STAT1” value (UB/OC-1 cells [3]) was “significantly decreased”, the “capsaicin-induced Tyr p-STAT3” value (UB/OC-1 cells [3]) was “significantly decreased” and the “JWH015 increase of p-STAT3” value (UB/OC-1 cells [3]; AM630 10 μM 30 min before JWH015) was “reversed”.
